Results reported in patent publication US8163909B2, “Substituted hydroxyethyl amine compounds as beta-secretase modulators and methods of use” (Amgen Inc., priority 2007, dated 2012).
Where two headings read alike, the source gives them in different places.

What was measured:
[1] = molecular target: Beta Secretase enzyme (BACE) (Homo sapiens, UniProt P56817); assay: In vitro enzymatic BACE FRET (fluorescence resonance energy transfer) assay; format: biochemical;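 note: fluorescence read after 1 h with 50 nM quenched peptide substrate spanning the BACE cleavage site, in pH 4.2 acetate buffer containing 10% DMSO and nonionic detergent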
[2] = system: Aβ40 in conditioned medium of cells stably expressing Amyloid Precursor Protein (APP); assay: In vitro BACE cell-based assay (Aβ40 in conditioned medium, sandwich ELISA); settings: Homo sapiens;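 note: compounds added as a dilution series, secreted peptide quantified by europium time-resolved fluorescence readout, potency fitted from percent of control versus compound concentration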
CYP3A4 (CYP3A) = CYP3A4 (CYP3A) (Homo sapiens, UniProt P08684); assay: in vitro; settings: microsomes, pH 7.4;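 note: inhibition of CYP3A-mediated 1-hydroxymidazolam formation after 10 min incubation with NADPH, quantified by HPLC MS relative to metabolite produced without test compound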
[3] = Microsomal stability assay, rat liver microsomes;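 note: rat liver microsomes (0.25 mg/mL) with about 1 µM compound plus 1 mM NADPH, pH 7.4, 37 °C for 30 min, parent left measured by LC-MS/MS against 0 min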
[4] = Microsomal stability assay, human liver microsomes;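 note: pooled human liver microsomes at 0.25 mg/mL with 1 µM compound and NADPH at 37 °C, pH 7.4, for 30 min, unchanged parent quantified by LC-MS/MS against the 0 min sample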
CYP2D6 = CYP2D6 (Homo sapiens, UniProt P10635); assay: CYP2D6 inhibition assay (bufuralol, pooled human liver microsomes)
[5] = Table 2, read-out: BACE1 FRET assay
[6] = HEK293, Table 2, HEK cells, read-out: HEK cell assay
[7] = 2D6 IC50, CYP enzyme inhibition
[8] = BACE enzyme assay, read-out: BACE1 FRET assay
[9] = HEK293, HEK cells, read-out: HEK cell assay
[10] = 2D6 IC50 (uM), CYP enzyme inhibition
[11] = BACE enzyme assay, IC50's in uM, read-out: BACE1 FRET assay
[12] = HEK293, HEK cell-based assay, IC50's in uM, read-out: HEK cell assay
[13] = read-out: BACE1 FRET assay (IC50)
[14] = HEK293, HEK cells, read-out: HEK cell assay (IC50)
[15] = BACE enzyme assay IC50, read-out: BACE1 FRET assay
[16] = HEK293, HEK cell-based assay IC50, read-out: HEK cell assay
[17] = 2D6 IC50 (uM), CYP2D6 inhibition

CYP2D6, sequence (P10635 whole entry): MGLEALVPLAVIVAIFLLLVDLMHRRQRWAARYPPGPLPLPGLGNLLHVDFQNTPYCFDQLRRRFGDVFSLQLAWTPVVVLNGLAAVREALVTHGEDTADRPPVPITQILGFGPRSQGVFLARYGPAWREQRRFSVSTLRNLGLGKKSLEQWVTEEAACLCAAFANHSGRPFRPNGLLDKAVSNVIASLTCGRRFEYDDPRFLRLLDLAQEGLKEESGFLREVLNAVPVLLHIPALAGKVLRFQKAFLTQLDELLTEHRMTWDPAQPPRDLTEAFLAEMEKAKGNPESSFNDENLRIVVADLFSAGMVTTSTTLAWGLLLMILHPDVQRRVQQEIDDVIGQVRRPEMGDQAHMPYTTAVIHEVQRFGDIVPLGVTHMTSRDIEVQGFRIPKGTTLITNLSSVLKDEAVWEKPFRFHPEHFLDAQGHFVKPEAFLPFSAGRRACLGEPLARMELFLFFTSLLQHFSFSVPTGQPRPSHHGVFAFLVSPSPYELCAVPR
CYP3A4 (CYP3A), sequence (P08684 2-503): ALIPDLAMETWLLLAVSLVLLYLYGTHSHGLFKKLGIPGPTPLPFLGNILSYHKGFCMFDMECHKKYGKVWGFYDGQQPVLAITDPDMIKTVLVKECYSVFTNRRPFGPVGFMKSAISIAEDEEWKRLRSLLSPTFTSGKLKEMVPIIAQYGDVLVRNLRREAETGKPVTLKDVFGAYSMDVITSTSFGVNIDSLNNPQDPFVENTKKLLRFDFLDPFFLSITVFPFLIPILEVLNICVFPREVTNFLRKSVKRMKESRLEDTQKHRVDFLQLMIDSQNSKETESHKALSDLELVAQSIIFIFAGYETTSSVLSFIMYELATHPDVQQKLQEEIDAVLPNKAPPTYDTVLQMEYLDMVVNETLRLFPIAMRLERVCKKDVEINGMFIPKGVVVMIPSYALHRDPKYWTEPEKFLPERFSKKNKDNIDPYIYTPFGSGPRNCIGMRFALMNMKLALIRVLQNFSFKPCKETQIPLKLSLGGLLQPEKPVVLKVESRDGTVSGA
Beta Secretase enzyme (BACE), sequence (P56817 46-501): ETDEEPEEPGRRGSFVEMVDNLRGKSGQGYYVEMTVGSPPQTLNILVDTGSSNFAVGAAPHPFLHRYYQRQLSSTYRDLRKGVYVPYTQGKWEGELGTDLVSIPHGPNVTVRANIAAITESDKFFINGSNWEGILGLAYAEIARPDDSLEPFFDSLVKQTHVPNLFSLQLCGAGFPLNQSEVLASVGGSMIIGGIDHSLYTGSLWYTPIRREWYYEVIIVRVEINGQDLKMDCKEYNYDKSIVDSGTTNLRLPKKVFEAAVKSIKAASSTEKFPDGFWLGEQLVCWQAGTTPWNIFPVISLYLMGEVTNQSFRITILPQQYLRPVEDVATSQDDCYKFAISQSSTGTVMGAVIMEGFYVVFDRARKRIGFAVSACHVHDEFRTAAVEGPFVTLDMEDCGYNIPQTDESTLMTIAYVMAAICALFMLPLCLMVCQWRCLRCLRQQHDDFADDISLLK

Row | SMILES | IC50 (CYP3A4 (CYP3A)) | RLM ([3]; rat liver microsomal data) | HLM ([4]; human liver microsomal data) | IC50 (CYP2D6; [10]) | RLM ([3]; rat liver microsomes) | HLM ([4]; human liver microsomes) | other results
1 | COCC(=O)N[C@@H](Cc1cc(F)cc(F)c1)[C@H](O)CN[C@H]1CC2(CCC2)Oc2c(-c3cncs3)cc(CC(C)(C)C)cc21 [compound 486] | 200 nM | 380 µL/min/mg | 408 µL/min/mg |  |  |  | IC50 [1, 5]: 0.004 µM; IC50 [2, 6]: 0.033 µM; IC50 (CYP2D6; [7]): 12.8 µM
2 | COCC(=O)N[C@@H](Cc1ccc(F)cc1)[C@H](O)CN[C@H]1CC2(CCC2)Oc2ncc(CC(C)(C)C#N)cc21 [compound 496] | 4700 nM | 139 µL/min/mg | 89 µL/min/mg | ≥ 27 µM |  |  | IC50 [1, 8]: 0.024 µM; IC50 [2, 9]: 0.102 µM
3 | C#Cc1cccc(C[C@H](NC(=O)COC)[C@H](O)CN[C@H]2CC3(CCC3)Oc3ncc(CC)cc32)c1 [compound 842] | 200 nM | 57 µL/min/mg | 55 µL/min/mg | 4.9 µM |  |  | IC50 [1, 11]: 0.026 µM; IC50 [2, 12]: 0.065 µM
4 | COC(OC)C(=O)N[C@@H](Cc1cccc(C#N)c1)[C@H](O)CN[C@H]1CC2(CCC2)Oc2ncc(CC(C)(C)C)cc21 [compound 798] | 500 nM | 423 µL/min/mg | 468 µL/min/mg | 4.7 µM |  |  | IC50 [1, 11]: 0.006 µM; IC50 [2, 12]: 0.005 µM
5 | CC(C)(C)Cc1cnc2c(c1)[C@@H](NC[C@@H](O)[C@H](Cc1ccc(F)cc1)NC(=O)COC(F)F)CC1(CCC1)O2 [compound 647] | 400 nM |  |  |  | 269 µL/min/mg | 303 µL/min/mg | IC50 [1, 13]: 0.008 µM; IC50 [2, 14]: 0.039 µM; IC50 (CYP2D6; 2D6 IC50, CYP2D6 inhibition): 2.7 µM
6 | CC(=O)N[C@@H](Cc1ccc2c(c1)OCO2)[C@H](O)CN[C@H]1CC(C)(C)Oc2ncc(CC(C)(C)C)cc21 [compound 679] | 200 nM |  |  |  | 138 µL/min/mg | 24 µL/min/mg | IC50 [1, 15]: 0.019 µM; IC50 [2, 16]: 0.012 µM; IC50 (CYP2D6; [17]): 5.7 µM
7 | COCC(=O)N[C@@H](C[C@@H]1CCOC1)[C@H](O)CN[C@H]1CC2(CCC2)Oc2ncc(CC(C)(C)C)cc21 [compound 462] | 8500 nM | 68 µL/min/mg | 107 µL/min/mg |  |  |  | IC50 [1, 5]: 0.432 µM; IC50 [2, 6]: 0.649 µM; IC50 (CYP2D6; [7]): 16.9 µM
8 | C#Cc1cnc2c(c1)[C@@H](NC[C@@H](O)[C@H](Cc1cc(F)cc(-c3nccs3)c1)NC(=O)COC)CC1(CCC1)O2 [compound 766] | 200 nM | 64 µL/min/mg | 70 µL/min/mg | 1.4 µM |  |  | IC50 [1, 11]: 0.055 µM; IC50 [2, 12]: 0.272 µM
9 | CC(=O)N[C@@H](Cc1ccc(F)c(-c2nccs2)c1)[C@H](O)CN[C@H]1CC2(CCC2)Oc2ncc(CC(C)(C)C)cc21 [compound 621, N-((1S,2R)-3-(((4′S)-6′-(2,2-dimethylpropyl)-3′,4′-dihydrospiro[cyclobutane-1,2′-pyrano[2,3-b]pyridin]-4′-yl)amino)-1-(4-fluoro-3-(1,3-thiazol-2-yl)benzyl)-2-hydroxypropyl)acetamide] | 160 nM |  |  |  | 64 µL/min/mg | 45 µL/min/mg | IC50 [1, 13]: 0.001 µM; IC50 [2, 14]: 0.01 µM; IC50 (CYP2D6; 2D6 IC50, CYP2D6 inhibition): 0.9 µM
10 | COCC(=O)N[C@@H](Cc1ccc(F)c(-c2cscn2)c1)[C@H](O)CN[C@H]1CC2(CCC2)Oc2ncc(CC(C)(C)C)cc21 [compound 683, N-((1S,2R)-3-(((4′S)-6′-(2,2-dimethylpropyl)-3′,4′-dihydrospiro[cyclobutane-1,2′-pyrano[2,3-b]pyridin]-4′-yl)amino)-1-(4-fluoro-3-(1,3-thiazol-4-yl)benzyl)-2-hydroxypropyl)-2-methoxyacetamide] | 200 nM |  |  |  | 61 µL/min/mg | 102 µL/min/mg | IC50 [1, 15]: 0.009 µM; IC50 [2, 16]: 0.031 µM; IC50 (CYP2D6; [17]): 2.3 µM
11 | COCC(=O)N[C@@H](Cc1ccccc1)[C@H](O)CN[C@H]1CC2(CCC2)Oc2c(Br)cc(CC(C)C)cc21 [compound 544] | 1800 nM | 662 µL/min/mg | 399 µL/min/mg | 7 µM |  |  | IC50 [1, 8]: 0.005 µM; IC50 [2, 9]: 0.937 µM
12 | COCC(=O)N[C@@H](Cc1ccc(-c2nccs2)c(F)c1)[C@H](O)CN[C@H]1CC2(CCC2)Oc2ncc(CC(C)C)cc21 [compound 787] | 200 nM | 79 µL/min/mg | 58 µL/min/mg | 0.8 µM |  |  | IC50 [1, 11]: 0.11 µM; IC50 [2, 12]: 0.451 µM
13 | CNc1nc(CC(C)C)cc2c1OC1(CCC1)C[C@@H]2NC[C@@H](O)[C@H](Cc1ccc2c(c1)OCO2)NC(=O)[C@@H](C)OC [compound 680] | 500 nM |  |  |  | 317 µL/min/mg | 220 µL/min/mg | IC50 [1, 15]: 0.14 µM; IC50 [2, 16]: 0.025 µM; IC50 (CYP2D6; [17]): 14 µM
14 | Cc1cccc(CN2CCO[C@@H](C(=O)N[C@@H](Cc3ccc(F)cc3)[C@H](O)CN[C@H]3CC4(CCC4)Oc4ncc(CC(C)(C)C)cc43)C2)c1 [compound 685] | 200 nM |  |  |  | 283 µL/min/mg | 662 µL/min/mg | IC50 [1, 15]: 0.013 µM; IC50 [2, 16]: 0.012 µM; IC50 (CYP2D6; [17]): 3.1 µM
15 | COCC(=O)N[C@@H](Cc1cc(F)cc(F)c1)[C@H](O)CN[C@H]1CC2(CCC2)Oc2c(-c3ccccc3F)cc(CC(C)(C)C)cc21 [compound 487] | 1600 nM | 387 µL/min/mg | 394 µL/min/mg | 21.4 µM |  |  | IC50 [1, 8]: 0.015 µM; IC50 [2, 9]: 0.118 µM
16 | COCC(=O)N[C@@H](Cc1ccnc(OC)c1)[C@H](O)CN[C@H]1CC2(CCC2)Oc2ncc(CC(C)(C)C)cc21 [compound 474] | 2000 nM | 174 µL/min/mg | 172 µL/min/mg |  |  |  | IC50 [1, 5]: 0.013 µM; IC50 [2, 6]: 0.022 µM; IC50 (CYP2D6; [7]): 6.5 µM
17 | CC#Cc1cnc2c(c1)[C@@H](NC[C@@H](O)[C@H](Cc1cccc(Br)c1)NC(=O)COC)CC1(CCC1)O2 [compound 812] | 400 nM | 345 µL/min/mg | 260 µL/min/mg | 3 µM |  |  | IC50 [1, 11]: 0.258 µM; IC50 [2, 12]: 0.954 µM
18 | CC(=O)N[C@@H](Cc1cccc(C#N)c1)[C@H](O)CN[C@H]1CC2(CCC2)Oc2c(-c3ccncc3)cc(CC(C)(C)C)cc21 [compound 637] | 100 nM |  |  |  | 105 µL/min/mg | 34 µL/min/mg | IC50 [1, 13]: 0.01 µM; IC50 [2, 14]: 0.004 µM; IC50 (CYP2D6; 2D6 IC50, CYP2D6 inhibition): 2.8 µM
19 | COCC(=O)N[C@@H](Cc1cccc(F)c1)[C@H](O)CN[C@H]1CC2(CCC2)Oc2c(-c3ccncc3F)cc(CC(C)(C)C)cc21 [compound 668] | 100 nM |  |  |  | 197 µL/min/mg | 118 µL/min/mg | IC50 [1, 13]: 0.004 µM; IC50 [2, 14]: 0.018 µM; IC50 (CYP2D6; 2D6 IC50, CYP2D6 inhibition): 2.9 µM
20 | CO[C@H](C)C(=O)N[C@@H](Cc1ccc2c(c1)OCO2)[C@H](O)CN[C@@H]1c2cc(CC(C)(C)C)cnc2OC2(CCC2)[C@@H]1F [compound 554] | 200 nM | 173 µL/min/mg | 63 µL/min/mg | 6.5 µM |  |  | IC50 [1, 8]: 0.057 µM; IC50 [2, 9]: 1.02 µM
21 | COCC(=O)N[C@@H](Cc1cc(F)cc(Cl)c1)[C@H](O)CN[C@H]1CC2(CCC2)Oc2ncc(CC(C)(F)F)cc21 [compound 799] | 500 nM | 236.5 µL/min/mg | 663 µL/min/mg | 4.95 µM |  |  | IC50 [1, 11]: 0.008 µM; IC50 [2, 12]: 0.019 µM
22 | CO[C@H](C)C(=O)N[C@@H](Cc1ccc(F)c(F)c1)[C@H](O)CN[C@H]1CC(C)(C)Oc2ncc(CC(C)(C)C)cc21 [compound 675] | 2000 nM |  |  |  | 411 µL/min/mg | 543 µL/min/mg | IC50 [1, 15]: 0.009 µM; IC50 [2, 16]: 0.013 µM; IC50 (CYP2D6; [17]): 21.8 µM
23 | CO[C@H](C)C(=O)N[C@@H](Cc1cc(F)cc(F)c1)[C@H](O)CN[C@H]1CC2(CCC2)Oc2c1cc(CC(C)C)nc2Cl [compound 686] | 200 nM |  |  |  | 399 µL/min/mg | 921 µL/min/mg | IC50 [1, 15]: 0.003 µM; IC50 [2, 16]: 0.052 µM; IC50 (CYP2D6; [17]): 6.1 µM
24 | CC(=O)N[C@@H](C[C@H]1CCOC1)[C@H](O)CN[C@H]1CC2(CCC2)Oc2ncc(CC(C)(C)C)cc21 [compound 469] | 16400 nM | 35 µL/min/mg | 60 µL/min/mg |  |  |  | IC50 [1, 5]: 0.137 µM; IC50 [2, 6]: 0.162 µM; IC50 (CYP2D6; [7]): ≥ 27 µM
25 | COCC(=O)N[C@@H](Cc1cc(F)cc(F)c1)[C@H](O)CN[C@H]1CC(C)(C)Oc2c1cc(CC(C)C)c1c2OCO1 [compound 748] | 100 nM |  |  |  | 179 µL/min/mg | 190 µL/min/mg | IC50 [1, 15]: 0.013 µM; IC50 [2, 16]: 0.126 µM; IC50 (CYP2D6; [17]): 8.2 µM
26 | COCC(=O)N[C@@H](Cc1ccc(F)c(-c2nccs2)c1)[C@H](O)CN[C@H]1CC2(CCC2)Oc2ncc(CC(C)C)cc21 [compound 727] | ≤ 30 nM |  |  |  | 74 µL/min/mg | 45 µL/min/mg | IC50 [1, 15]: 0.011 µM; IC50 [2, 16]: 0.023 µM; IC50 (CYP2D6; [17]): 0.5 µM
27 | C#Cc1cccc(C[C@H](NC(=O)COC)[C@H](O)CN[C@H]2CC3(CCC3)Oc3ncc(CC(C)(C)C(F)(F)F)cc32)c1 [compound 838] | 100 nM | 54 µL/min/mg | 34 µL/min/mg | 2 µM |  |  | IC50 [1, 11]: 0.01 µM; IC50 [2, 12]: 0.028 µM
